We go through one compound from publication PMC13426457, “Cryo-EM structures of apo, agonist- and antagonist-bound heteromeric kainate receptors” (Science Advances, 2026).

The assay has as its target T1, GluK2 (Rattus norvegicus, UniProt P42260, A518T/I567V/C576V/C595S).
T1 construct: gene Grik2

T1 sequence (P42260 32-908 A518T/I567V/C576V/C595S): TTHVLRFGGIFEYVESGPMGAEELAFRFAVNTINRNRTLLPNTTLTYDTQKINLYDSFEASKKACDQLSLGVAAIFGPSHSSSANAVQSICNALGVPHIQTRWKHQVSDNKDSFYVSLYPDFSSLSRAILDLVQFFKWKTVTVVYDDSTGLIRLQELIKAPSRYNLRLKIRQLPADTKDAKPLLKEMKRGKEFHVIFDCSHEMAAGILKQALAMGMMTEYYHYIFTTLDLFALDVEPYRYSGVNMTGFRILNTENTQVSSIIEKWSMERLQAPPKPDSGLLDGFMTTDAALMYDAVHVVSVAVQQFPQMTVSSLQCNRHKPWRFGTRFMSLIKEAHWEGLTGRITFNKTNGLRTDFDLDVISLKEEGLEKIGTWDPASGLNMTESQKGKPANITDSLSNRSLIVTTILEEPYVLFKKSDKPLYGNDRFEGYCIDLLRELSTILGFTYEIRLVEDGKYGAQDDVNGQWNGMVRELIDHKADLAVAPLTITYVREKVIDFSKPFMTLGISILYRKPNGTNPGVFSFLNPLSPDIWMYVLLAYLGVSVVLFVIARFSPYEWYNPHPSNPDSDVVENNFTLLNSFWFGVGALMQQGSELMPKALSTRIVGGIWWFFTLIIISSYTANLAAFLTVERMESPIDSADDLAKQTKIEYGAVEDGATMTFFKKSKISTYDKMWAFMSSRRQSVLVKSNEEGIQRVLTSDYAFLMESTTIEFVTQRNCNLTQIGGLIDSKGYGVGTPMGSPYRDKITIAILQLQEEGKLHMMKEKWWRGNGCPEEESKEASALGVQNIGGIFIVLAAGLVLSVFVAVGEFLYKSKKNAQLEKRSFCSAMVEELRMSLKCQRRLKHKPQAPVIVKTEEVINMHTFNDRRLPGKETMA
T1 sequence (Q63273 with tags, fused parts or gaps T501A/C559V/C578S/C619I/C813A partner): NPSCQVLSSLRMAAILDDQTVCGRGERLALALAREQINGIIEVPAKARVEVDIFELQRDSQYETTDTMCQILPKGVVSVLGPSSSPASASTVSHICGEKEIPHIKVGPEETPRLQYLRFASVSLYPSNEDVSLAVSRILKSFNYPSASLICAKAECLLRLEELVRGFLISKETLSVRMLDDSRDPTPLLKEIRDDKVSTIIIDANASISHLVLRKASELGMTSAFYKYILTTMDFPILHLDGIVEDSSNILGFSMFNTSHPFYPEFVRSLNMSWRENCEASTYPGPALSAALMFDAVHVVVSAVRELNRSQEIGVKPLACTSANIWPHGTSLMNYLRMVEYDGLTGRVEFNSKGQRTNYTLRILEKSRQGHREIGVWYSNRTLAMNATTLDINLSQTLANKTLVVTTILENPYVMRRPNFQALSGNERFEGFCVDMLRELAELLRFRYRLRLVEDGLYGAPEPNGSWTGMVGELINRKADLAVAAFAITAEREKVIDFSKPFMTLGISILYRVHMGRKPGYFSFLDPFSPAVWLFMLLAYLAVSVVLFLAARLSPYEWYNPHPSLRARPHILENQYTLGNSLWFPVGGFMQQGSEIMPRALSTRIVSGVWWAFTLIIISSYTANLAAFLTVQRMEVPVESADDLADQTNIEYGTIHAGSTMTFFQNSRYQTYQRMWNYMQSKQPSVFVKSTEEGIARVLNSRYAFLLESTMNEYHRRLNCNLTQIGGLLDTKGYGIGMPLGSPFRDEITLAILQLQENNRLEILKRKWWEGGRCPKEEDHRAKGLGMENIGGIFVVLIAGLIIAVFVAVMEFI

For `Cc1cn(C[C@H](N)C(=O)O)c(=O)n(Cc2ccsc2C(=O)O)c1=O` [UBP310, (S)-1-(2-amino-2-carboxyethyl)-3-(2-carboxythiophene-3-yl-methyl)-5-methylpyrimidine-2,4-dione], the “% current reduction at 0.5 mM” value was 56.2 ± 21.0 % current reduction at 0.5 mM.
